Measured values as given in ChEMBL document CHEMBL4507266, “Data for DCP probe BAY-784” (2021).

How the values were obtained:
[1] = target: Leukocyte tyrosine kinase receptor (Homo sapiens) (UniProt P29376); conditions: Compound concentration 1000.0 nM
[2] = target: Serine/threonine-protein kinase PLK4 (Homo sapiens) (UniProt O00444); conditions: Compound concentration 1000.0 nM
[3] = target: Serine/threonine-protein kinase SIK1 (Homo sapiens) (UniProt P57059); conditions: Compound concentration 1000.0 nM
[4] = target: Serine/threonine-protein kinase PAK 1 (Homo sapiens) (UniProt Q13153); conditions: Compound concentration 1000.0 nM
[5] = target: Fibroblast growth factor receptor 3 (Homo sapiens) (UniProt P22607); conditions: Compound concentration 1000.0 nM
[6] = tested on: Phosphatidylinositol 4,5-bisphosphate 3-kinase catalytic subunit alpha isoform (Homo sapiens), P42336 [H1047L]; conditions: Compound concentration 1000.0 nM
[7] = target: Transient receptor potential cation channel subfamily M member 6 (Homo sapiens) (UniProt Q9BX84); conditions: Compound concentration 1000.0 nM
Transient receptor potential cation channel subfamily M member 6 (Homo sapiens), sequence (Q9BX84 whole entry): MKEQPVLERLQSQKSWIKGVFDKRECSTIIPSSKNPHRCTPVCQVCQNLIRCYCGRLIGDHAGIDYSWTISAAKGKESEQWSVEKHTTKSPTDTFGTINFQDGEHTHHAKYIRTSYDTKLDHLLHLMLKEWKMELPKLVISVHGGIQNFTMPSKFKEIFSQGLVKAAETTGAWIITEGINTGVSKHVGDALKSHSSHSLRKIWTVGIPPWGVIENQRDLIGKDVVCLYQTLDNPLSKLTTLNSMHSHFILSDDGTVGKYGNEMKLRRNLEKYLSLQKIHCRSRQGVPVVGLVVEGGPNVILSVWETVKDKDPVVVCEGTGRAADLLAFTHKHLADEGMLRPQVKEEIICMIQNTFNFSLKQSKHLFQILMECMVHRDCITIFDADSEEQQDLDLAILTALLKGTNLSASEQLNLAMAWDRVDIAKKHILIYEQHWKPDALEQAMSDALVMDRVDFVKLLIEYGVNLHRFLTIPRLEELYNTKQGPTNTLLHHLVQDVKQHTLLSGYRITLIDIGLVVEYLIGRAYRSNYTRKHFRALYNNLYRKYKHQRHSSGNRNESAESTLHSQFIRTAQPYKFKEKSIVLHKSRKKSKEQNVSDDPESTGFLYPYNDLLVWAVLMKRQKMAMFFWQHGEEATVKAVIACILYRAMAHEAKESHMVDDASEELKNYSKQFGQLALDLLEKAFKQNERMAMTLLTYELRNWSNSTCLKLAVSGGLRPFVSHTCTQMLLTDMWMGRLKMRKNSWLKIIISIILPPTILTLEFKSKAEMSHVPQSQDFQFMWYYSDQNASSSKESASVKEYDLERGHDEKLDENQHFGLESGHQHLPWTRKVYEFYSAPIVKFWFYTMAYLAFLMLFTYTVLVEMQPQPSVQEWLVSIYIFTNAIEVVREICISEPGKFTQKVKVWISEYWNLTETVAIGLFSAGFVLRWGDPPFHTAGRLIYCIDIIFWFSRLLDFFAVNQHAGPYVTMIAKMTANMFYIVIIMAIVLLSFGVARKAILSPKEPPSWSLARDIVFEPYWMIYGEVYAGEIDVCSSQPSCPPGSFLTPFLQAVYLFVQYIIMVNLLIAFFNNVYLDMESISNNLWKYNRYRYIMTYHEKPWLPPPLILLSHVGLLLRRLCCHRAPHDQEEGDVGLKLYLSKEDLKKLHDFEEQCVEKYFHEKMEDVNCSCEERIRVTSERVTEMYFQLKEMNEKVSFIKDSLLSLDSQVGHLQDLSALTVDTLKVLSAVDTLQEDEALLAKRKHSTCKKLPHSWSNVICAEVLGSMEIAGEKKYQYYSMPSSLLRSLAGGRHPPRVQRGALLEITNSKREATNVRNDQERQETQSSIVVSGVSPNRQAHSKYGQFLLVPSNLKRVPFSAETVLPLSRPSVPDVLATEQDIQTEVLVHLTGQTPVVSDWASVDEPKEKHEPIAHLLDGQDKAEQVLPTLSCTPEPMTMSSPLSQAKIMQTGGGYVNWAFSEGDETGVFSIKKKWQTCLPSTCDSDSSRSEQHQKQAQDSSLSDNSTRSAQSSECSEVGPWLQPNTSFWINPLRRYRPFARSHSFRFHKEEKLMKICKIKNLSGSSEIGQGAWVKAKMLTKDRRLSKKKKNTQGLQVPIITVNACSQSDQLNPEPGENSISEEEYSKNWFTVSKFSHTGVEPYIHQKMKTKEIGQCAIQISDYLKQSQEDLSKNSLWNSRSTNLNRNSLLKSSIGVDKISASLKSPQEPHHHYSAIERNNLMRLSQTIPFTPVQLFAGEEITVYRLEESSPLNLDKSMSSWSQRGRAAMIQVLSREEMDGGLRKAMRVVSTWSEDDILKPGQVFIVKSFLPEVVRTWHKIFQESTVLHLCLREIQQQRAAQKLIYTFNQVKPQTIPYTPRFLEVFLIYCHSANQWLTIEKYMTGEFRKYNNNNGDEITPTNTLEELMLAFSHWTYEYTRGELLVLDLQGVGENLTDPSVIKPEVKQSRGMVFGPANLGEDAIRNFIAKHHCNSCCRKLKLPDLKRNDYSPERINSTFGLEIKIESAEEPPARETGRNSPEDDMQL

[8] = target: Platelet-derived growth factor receptor alpha (Homo sapiens) (UniProt P16234); conditions: Compound concentration 1000.0 nM
[9] = target: Phosphatidylinositol 3-kinase C2 domain-containing subunit gamma (Homo sapiens) (UniProt O75747); conditions: Compound concentration 1000.0 nM
[10] = target: Serine/threonine-protein kinase VRK2 (Homo sapiens) (UniProt Q86Y07); conditions: Compound concentration 1000.0 nM
[11] = target: Mitogen-activated protein kinase 13 (Homo sapiens) (UniProt O15264); conditions: Compound concentration 1000.0 nM
[12] = target: Dual specificity mitogen-activated protein kinase kinase 1 (Homo sapiens) (UniProt Q02750); conditions: Compound concentration 1000.0 nM
[13] = target: Serine/threonine-protein kinase STK11 (Homo sapiens) (UniProt Q15831); conditions: Compound concentration 1000.0 nM
Serine/threonine-protein kinase STK11 (Homo sapiens), sequence (Q15831 whole entry): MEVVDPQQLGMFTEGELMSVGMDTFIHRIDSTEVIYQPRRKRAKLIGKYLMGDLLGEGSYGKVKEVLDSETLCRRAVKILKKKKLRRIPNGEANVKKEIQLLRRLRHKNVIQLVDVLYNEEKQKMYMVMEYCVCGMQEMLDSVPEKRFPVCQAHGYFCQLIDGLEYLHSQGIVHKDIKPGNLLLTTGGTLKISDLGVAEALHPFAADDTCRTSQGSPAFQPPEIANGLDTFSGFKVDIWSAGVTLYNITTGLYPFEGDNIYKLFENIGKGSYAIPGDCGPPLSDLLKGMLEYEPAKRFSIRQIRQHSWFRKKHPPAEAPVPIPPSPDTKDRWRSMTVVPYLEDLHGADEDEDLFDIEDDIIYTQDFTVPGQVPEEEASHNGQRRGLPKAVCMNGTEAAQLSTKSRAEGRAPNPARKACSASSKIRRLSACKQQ

[14] = target: Serine/threonine-protein kinase TAO2 (Homo sapiens) (UniProt Q9UL54); conditions: Compound concentration 1000.0 nM
[15] = target: Phosphorylase b kinase gamma catalytic chain, skeletal muscle/heart isoform (Homo sapiens) (UniProt Q16816); conditions: Compound concentration 1000.0 nM
[16] = target: Cyclin-dependent kinase 4 (Homo sapiens) (UniProt P11802); conditions: Compound concentration 1000.0 nM
Cyclin-dependent kinase 4 (Homo sapiens), sequence (P11802 whole entry): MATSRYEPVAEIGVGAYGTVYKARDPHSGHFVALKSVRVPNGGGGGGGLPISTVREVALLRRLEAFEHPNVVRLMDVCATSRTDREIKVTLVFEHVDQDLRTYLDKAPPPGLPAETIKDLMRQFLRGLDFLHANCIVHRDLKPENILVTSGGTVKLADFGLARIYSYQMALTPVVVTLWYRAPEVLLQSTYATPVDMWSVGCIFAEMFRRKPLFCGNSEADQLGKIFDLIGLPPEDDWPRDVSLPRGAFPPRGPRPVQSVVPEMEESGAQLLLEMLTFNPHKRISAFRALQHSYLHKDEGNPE

[17] = target: Dual specificity tyrosine-phosphorylation-regulated kinase 1A (Homo sapiens) (UniProt Q13627); conditions: Compound concentration 1000.0 nM
[18] = target: Phosphatidylinositol 5-phosphate 4-kinase type-2 beta (Homo sapiens) (UniProt P78356); conditions: Compound concentration 1000.0 nM
[19] = target: Dual specificity tyrosine-phosphorylation-regulated kinase 1B (Homo sapiens) (UniProt Q9Y463); conditions: Compound concentration 1000.0 nM
[20] = target: Activin receptor type-2A (Homo sapiens) (UniProt P27037); conditions: Compound concentration 1000.0 nM
[21] = target: Ribosomal protein S6 kinase alpha-2 (Homo sapiens) (UniProt Q15349); conditions: Compound concentration 1000.0 nM
[22] = target: Ribosomal protein S6 kinase alpha-5 (Homo sapiens) (UniProt O75582); conditions: Compound concentration 1000.0 nM
[23] = target: SRSF protein kinase 3 (Homo sapiens) (UniProt Q9UPE1); conditions: Compound concentration 1000.0 nM
[24] = target: Serine/threonine-protein kinase NLK (Homo sapiens) (UniProt Q9UBE8); conditions: Compound concentration 1000.0 nM
[25] = target: Serine/threonine-protein kinase LATS1 (Homo sapiens) (UniProt O95835); conditions: Compound concentration 1000.0 nM
[26] = target: Casein kinase II subunit alpha (Homo sapiens) (UniProt P68400); conditions: Compound concentration 1000.0 nM
Casein kinase II subunit alpha (Homo sapiens), sequence (P68400 whole entry, looked up): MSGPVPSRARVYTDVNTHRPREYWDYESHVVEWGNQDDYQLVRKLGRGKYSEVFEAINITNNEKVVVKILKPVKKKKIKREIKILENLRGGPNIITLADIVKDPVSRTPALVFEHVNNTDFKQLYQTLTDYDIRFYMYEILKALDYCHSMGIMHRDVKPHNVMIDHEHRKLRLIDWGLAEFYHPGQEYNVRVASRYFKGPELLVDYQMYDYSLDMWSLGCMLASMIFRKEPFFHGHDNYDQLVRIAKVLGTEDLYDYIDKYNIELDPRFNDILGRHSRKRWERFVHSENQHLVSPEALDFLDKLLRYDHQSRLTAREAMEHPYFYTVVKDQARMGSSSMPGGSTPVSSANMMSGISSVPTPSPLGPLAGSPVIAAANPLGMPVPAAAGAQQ

[27] = target: Cyclin-dependent kinase 11A (Homo sapiens) (UniProt Q9UQ88); conditions: Compound concentration 1000.0 nM
Cyclin-dependent kinase 11A (Homo sapiens), sequence (Q9UQ88 whole entry): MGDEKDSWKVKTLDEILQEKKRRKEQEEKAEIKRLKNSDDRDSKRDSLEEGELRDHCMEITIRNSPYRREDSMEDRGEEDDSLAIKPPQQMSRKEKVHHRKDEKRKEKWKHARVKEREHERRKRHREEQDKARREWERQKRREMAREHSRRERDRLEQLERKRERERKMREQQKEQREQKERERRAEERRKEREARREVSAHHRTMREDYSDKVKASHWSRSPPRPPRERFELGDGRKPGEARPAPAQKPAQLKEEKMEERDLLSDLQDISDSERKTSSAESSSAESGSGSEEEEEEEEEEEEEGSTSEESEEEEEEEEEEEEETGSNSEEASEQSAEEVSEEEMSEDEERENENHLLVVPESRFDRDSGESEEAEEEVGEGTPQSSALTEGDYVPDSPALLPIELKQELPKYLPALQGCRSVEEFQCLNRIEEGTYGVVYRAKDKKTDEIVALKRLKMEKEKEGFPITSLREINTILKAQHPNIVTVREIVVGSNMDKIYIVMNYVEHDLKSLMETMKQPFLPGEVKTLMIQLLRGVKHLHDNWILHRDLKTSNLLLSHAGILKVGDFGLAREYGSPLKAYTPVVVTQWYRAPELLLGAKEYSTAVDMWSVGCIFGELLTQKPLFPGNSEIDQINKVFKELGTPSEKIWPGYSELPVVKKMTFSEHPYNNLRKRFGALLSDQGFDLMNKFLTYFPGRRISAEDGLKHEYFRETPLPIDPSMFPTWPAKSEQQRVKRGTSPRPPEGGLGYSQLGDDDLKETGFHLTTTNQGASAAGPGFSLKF

[28] = target: Rho-associated protein kinase 1 (Homo sapiens) (UniProt Q13464); conditions: Compound concentration 1000.0 nM
[29] = target: cGMP-dependent protein kinase 1 (Homo sapiens) (UniProt Q13976); conditions: Compound concentration 1000.0 nM
[30] = target: D(1B) dopamine receptor (Homo sapiens) (UniProt P21918); conditions: Compound concentration 10.0 uM
[31] = target: Serine/threonine-protein kinase 38 (Homo sapiens) (UniProt Q15208); conditions: Compound concentration 1000.0 nM
[32] = target: Mitogen-activated protein kinase kinase kinase 9 (Homo sapiens) (UniProt P80192); conditions: Compound concentration 1000.0 nM
[33] = target: Cyclin-dependent kinase 19 (Homo sapiens) (UniProt Q9BWU1); conditions: Compound concentration 1000.0 nM
[34] = target: Ephrin type-B receptor 3 (Homo sapiens) (UniProt P54753); conditions: Compound concentration 1000.0 nM
[35] = target: Histamine H3 receptor (Homo sapiens) (UniProt Q9Y5N1); conditions: Compound concentration 10.0 uM
[36] = target: Serine/threonine-protein kinase Nek5 (Homo sapiens) (UniProt Q6P3R8); conditions: Compound concentration 1000.0 nM
[37] = target: Calcium/calmodulin-dependent protein kinase type II subunit beta (Homo sapiens) (UniProt Q13554); conditions: Compound concentration 1000.0 nM
[38] = tested on: Receptor-type tyrosine-protein kinase FLT3 (Homo sapiens), P36888 [UNDEFINED MUTATION]; conditions: Compound concentration 1000.0 nM
[39] = tested on: Tyrosine-protein kinase ABL1 (Homo sapiens), P00519 [Y253F]; conditions: Compound concentration 1000.0 nM
[40] = target: Myosin light chain kinase (Homo sapiens) (UniProt Q32MK0); conditions: Compound concentration 1000.0 nM
[41] = target: Calcium/calmodulin-dependent protein kinase type 1B (Homo sapiens) (UniProt Q6P2M8); conditions: Compound concentration 1000.0 nM
[42] = target: Serine/threonine-protein kinase 32C (Homo sapiens) (UniProt Q86UX6); conditions: Compound concentration 1000.0 nM
[43] = target: Mitogen-activated protein kinase kinase kinase kinase 5 (Homo sapiens) (UniProt Q9Y4K4); conditions: Compound concentration 1000.0 nM
[44] = target: Casein kinase I isoform alpha (Homo sapiens) (UniProt P48729); conditions: Compound concentration 1000.0 nM
[45] = tested on: Proto-oncogene tyrosine-protein kinase receptor Ret (Homo sapiens), P07949 [M918T]; conditions: Compound concentration 1000.0 nM
Proto-oncogene tyrosine-protein kinase receptor Ret (Homo sapiens), P07949 [M918T], sequence (P07949 whole entry M918T): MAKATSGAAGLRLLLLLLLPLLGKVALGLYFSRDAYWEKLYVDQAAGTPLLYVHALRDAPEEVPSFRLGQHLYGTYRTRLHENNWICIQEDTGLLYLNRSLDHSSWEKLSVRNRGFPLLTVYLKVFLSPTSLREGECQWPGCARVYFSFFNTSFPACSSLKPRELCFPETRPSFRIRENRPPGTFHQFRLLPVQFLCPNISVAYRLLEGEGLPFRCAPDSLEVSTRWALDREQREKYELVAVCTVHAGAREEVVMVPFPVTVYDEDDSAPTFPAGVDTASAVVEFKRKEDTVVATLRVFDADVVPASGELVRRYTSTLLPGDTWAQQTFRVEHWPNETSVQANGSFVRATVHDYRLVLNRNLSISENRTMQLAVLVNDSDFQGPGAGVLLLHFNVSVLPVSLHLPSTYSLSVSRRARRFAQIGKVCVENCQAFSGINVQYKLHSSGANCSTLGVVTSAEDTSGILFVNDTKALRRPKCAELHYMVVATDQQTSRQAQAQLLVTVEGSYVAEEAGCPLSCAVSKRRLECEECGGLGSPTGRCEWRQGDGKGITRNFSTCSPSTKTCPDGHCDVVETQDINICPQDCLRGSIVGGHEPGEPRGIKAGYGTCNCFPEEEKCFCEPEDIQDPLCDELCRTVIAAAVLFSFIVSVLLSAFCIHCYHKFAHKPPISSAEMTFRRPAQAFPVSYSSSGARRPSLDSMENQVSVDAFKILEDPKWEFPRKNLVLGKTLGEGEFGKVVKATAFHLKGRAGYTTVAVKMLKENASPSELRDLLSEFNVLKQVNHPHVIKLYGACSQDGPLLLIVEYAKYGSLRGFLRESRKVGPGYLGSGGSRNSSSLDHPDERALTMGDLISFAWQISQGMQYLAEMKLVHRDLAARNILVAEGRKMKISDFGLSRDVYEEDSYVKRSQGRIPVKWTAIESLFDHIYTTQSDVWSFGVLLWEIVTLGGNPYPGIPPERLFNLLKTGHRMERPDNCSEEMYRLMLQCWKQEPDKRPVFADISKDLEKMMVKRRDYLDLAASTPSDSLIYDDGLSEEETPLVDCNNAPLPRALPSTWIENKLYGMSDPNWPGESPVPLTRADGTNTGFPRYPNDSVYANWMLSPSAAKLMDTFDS

O=C(NCc1ncc(C(F)(F)F)cc1Cl)c1ccc2c(c1)C1(CCS(=O)(=O)CC1)[C@H](C1CC1)N2S(=O)(=O)c1ccc(F)cc1 [BAY-784]
inactive: residual activity [1] 87% | residual activity [2] 92% | residual activity [3] 100% | residual activity [4] 100% | residual activity [5] 100% | residual activity [6] 77% | residual activity [7] 81% | residual activity [8] 90% | residual activity [9] 75% | residual activity [10] 95% | residual activity [11] 99% | residual activity [12] 98% | residual activity [13] 100% | residual activity [14] 81% | residual activity [15] 100% | residual activity [16] 88% | residual activity [17] 88% | residual activity [18] 89% | residual activity [19] 100% | residual activity [20] 86% | residual activity [21] 100% | residual activity [22] 100% | residual activity [23] 100% | residual activity [24] 100% | residual activity [25] 91% | residual activity [26] 66% | residual activity [27] 100% | residual activity [28] 94% | residual activity [29] 100% | inhibition [30] 19.1% | residual activity [31] 92% | residual activity [32] 100% | residual activity [33] 100% | residual activity [34] 100% | inhibition [35] -8.26% | residual activity [36] 100% | residual activity [37] 98% | residual activity [38] 81% | residual activity [39] 85% | residual activity [40] 79% | residual activity [41] 91% | residual activity [42] 100% | residual activity [43] 82% | residual activity [44] 92% | residual activity [45] 96%

O=C(NCc1ncc(C(F)(F)F)cc1Cl)c1ccc2c(c1)C1(CCS(=O)(=O)CC1)[C@@H](C1CC1)N2S(=O)(=O)c1ccc(F)cc1 [BAY-786]
inactive: residual activity [1] 81% | residual activity [2] 92% | residual activity [3] 89% | residual activity [4] 80% | residual activity [5] 100% | residual activity [6] 85% | residual activity [7] 92% | residual activity [8] 87% | residual activity [9] 75% | residual activity [10] 98% | residual activity [11] 86% | residual activity [12] 91% | residual activity [13] 100% | residual activity [14] 64% | residual activity [15] 100% | residual activity [16] 88% | residual activity [17] 85% | residual activity [18] 89% | residual activity [19] 100% | residual activity [20] 100% | residual activity [21] 93% | residual activity [22] 97% | residual activity [23] 100% | residual activity [24] 89% | residual activity [25] 97% | residual activity [26] 67% | residual activity [27] 100% | residual activity [28] 82% | residual activity [29] 100% | inhibition [30] -0.49% | residual activity [31] 84% | residual activity [32] 77% | residual activity [33] 100% | residual activity [34] 100% | inhibition [35] 6.92% | residual activity [36] 86% | residual activity [37] 92% | residual activity [38] 67% | residual activity [39] 100% | residual activity [40] 76% | residual activity [41] 96% | residual activity [42] 100% | residual activity [43] 100% | residual activity [44] 81% | residual activity [45] 100%
